Test results from ChEMBL document CHEMBL1158397, “Polycyclic cage structures as carrier molecules for neuroprotective non-steroidal anti-inflammatory drugs” (Eur J Med Chem, 2009).
Active and inactive are the calls of the source. The calls are words filed in the database; no cut-off is given here.

Legend:
[1] = system: Brain; assay: Drug level in C57BL/6 mouse brain assessed as salicylic acid at 150 mg/kg, ip measured after 1 hr by LC-MS/MS analysis; format: ADME, organism-based; parameters: dose 150 mg/kg, route intraperitoneal; details: in vivo
[2] = Ratio of drug level in brain to blood assessed as salicylic acid in C57BL/6 mouse at 150 mg/kg, ip measured after 1 hr by LC-MS/MS analysis; format: ADME, organism-based; parameters: dose 150 mg/kg, route intraperitoneal
[3] = system: Blood; assay: Drug level in C57BL/6 mouse blood assessed as total salicylate at 150 mg/kg, ip measured after 1 hr by LC-MS/MS analysis; format: ADME, organism-based; parameters: dose 150 mg/kg, route intraperitoneal; details: in vivo
[4] = system: Brain; assay: Drug level in C57BL/6 mouse brain assessed as total salicylate at 150 mg/kg, ip measured after 1 hr by LC-MS/MS analysis; format: ADME, organism-based; parameters: dose 150 mg/kg, route intraperitoneal; details: in vivo
[5] = Ratio of drug level in brain to blood assessed as total salicylate in C57BL/6 mouse at 150 mg/kg, ip measured after 1 hr by LC-MS/MS analysis; format: ADME, organism-based; parameters: dose 150 mg/kg, route intraperitoneal
[6] = system: Brain; assay: Antioxidant activity in Sprague-Dawley rat brain homogenate assessed as attenuation of toxin-induced lipid peroxidation at 1 mM by modified TBA assay; format: functional, tissue-based
[7] = Drug level in C57BL/6 mouse blood at 150 mg/kg, ip measured after 1 hr by LC-MS/MS analysis; format: ADME, organism-based; parameters: dose 150 mg/kg, route intraperitoneal; details: read-out: Drug uptake
[8] = Drug level in C57BL/6 mouse brain at 150 mg/kg, ip measured after 1 hr by LC-MS/MS analysis; format: ADME, organism-based; parameters: dose 150 mg/kg, route intraperitoneal; details: read-out: Drug uptake
[9] = Ratio of drug level in brain to blood in C57BL/6 mouse at 150 mg/kg, ip measured after 1 hr by LC-MS/MS analysis; format: ADME, organism-based; parameters: dose 150 mg/kg, route intraperitoneal
[10] = system: Blood; assay: Drug level in C57BL/6 mouse blood assessed as salicylic acid at 150 mg/kg, ip measured after 1 hr by LC-MS/MS analysis; format: ADME, organism-based; parameters: dose 150 mg/kg, route intraperitoneal; details: in vivo
[11] = Drug level in C57BL/6 mouse blood at 260.935 mg/kg, ip measured after 1 hr by LC-MS/MS analysis; format: ADME, organism-based; parameters: dose 260.935 mg/kg, route intraperitoneal; details: 260.94 mg/kg, read-out: Drug uptake
[12] = Drug level in C57BL/6 mouse brain at 260.935 mg/kg, ip measured after 1 hr by LC-MS/MS analysis; format: ADME, organism-based; parameters: dose 260.935 mg/kg, route intraperitoneal; details: 260.94 mg/kg, read-out: Drug uptake
[13] = Ratio of drug level in brain to blood in C57BL/6 mouse at 260.935 mg/kg, ip measured after 1 hr by LC-MS/MS analysis; format: ADME, organism-based; parameters: dose 260.935 mg/kg, route intraperitoneal; details: 260.94 mg/kg
[14] = system: Blood; assay: Drug level in C57BL/6 mouse blood assessed as acetylsalicylic acid at 260.935 mg/kg, ip measured after 1 hr by LC-MS/MS analysis; format: ADME, organism-based; parameters: dose 260.935 mg/kg, route intraperitoneal; details: in vivo, 260.94 mg/kg
[15] = system: Brain; assay: Drug level in C57BL/6 mouse brain assessed as acetylsalicylic acid at 260.935 mg/kg, ip measured after 1 hr by LC-MS/MS analysis; format: ADME, organism-based; parameters: dose 260.935 mg/kg, route intraperitoneal; details: in vivo, 260.94 mg/kg
[16] = Ratio of drug level in brain to blood assessed as acetylsalicylic acid in C57BL/6 mouse at 260.935 mg/kg, ip measured after 1 hr by LC-MS/MS analysis; format: ADME, organism-based; parameters: dose 260.935 mg/kg, route intraperitoneal; details: 260.94 mg/kg
[17] = system: Blood; assay: Drug level in C57BL/6 mouse blood assessed as acetylsalicylic acid at 327.58 mg/kg, ip measured after 1 hr by LC-MS/MS analysis; format: ADME, organism-based; parameters: dose 327.58 mg/kg, route intraperitoneal; details: in vivo
[18] = system: Brain; assay: Drug level in C57BL/6 mouse brain assessed as acetylsalicylic acid at 327.58 mg/kg, ip measured after 1 hr by LC-MS/MS analysis; format: ADME, organism-based; parameters: dose 327.58 mg/kg, route intraperitoneal; details: in vivo
[19] = Ratio of drug level in brain to blood assessed as acetylsalicylic acid in C57BL/6 mouse at 327.58 mg/kg, ip measured after 1 hr by LC-MS/MS analysis; format: ADME, organism-based; parameters: dose 327.58 mg/kg, route intraperitoneal
[20] = system: Blood; assay: Drug level in C57BL/6 mouse blood assessed as ibuprofen at 305.08 mg/kg, ip measured after 1 hr by LC-MS/MS analysis; format: ADME, organism-based; parameters: dose 305.08 mg/kg, route intraperitoneal; details: in vivo
[21] = system: Brain; assay: Drug level in C57BL/6 mouse brain assessed as ibuprofen at 305.08 mg/kg, ip measured after 1 hr by LC-MS/MS analysis; format: ADME, organism-based; parameters: dose 305.08 mg/kg, route intraperitoneal; details: in vivo
[22] = Ratio of drug level in brain to blood assessed as ibuprofen in C57BL/6 mouse at 305.08 mg/kg, ip measured after 1 hr by LC-MS/MS analysis; format: ADME, organism-based; parameters: dose 305.08 mg/kg, route intraperitoneal
[23] = system: Blood; assay: Drug level in C57BL/6 mouse blood assessed as ibuprofen at 246.883 mg/kg, ip measured after 1 hr by LC-MS/MS analysis; format: ADME, organism-based; parameters: dose 246.883 mg/kg, route intraperitoneal; details: in vivo, 246.88 mg/kg
[24] = system: Brain; assay: Drug level in C57BL/6 mouse brain assessed as ibuprofen at 246.883 mg/kg, ip measured after 1 hr by LC-MS/MS analysis; format: ADME, organism-based; parameters: dose 246.883 mg/kg, route intraperitoneal; details: in vivo, 246.88 mg/kg
[25] = Ratio of drug level in brain to blood assessed as ibuprofen in C57BL/6 mouse at 246.883 mg/kg, ip measured after 1 hr by LC-MS/MS analysis; format: ADME, organism-based; parameters: dose 246.883 mg/kg, route intraperitoneal; details: 246.88 mg/kg

CC(=O)Oc1ccccc1C(=O)O [ASPIRIN]
Drug uptake [1]: 7.37 ng/mL
Ratio [2]: 1.06
Drug uptake [3]: 41.45 ng/mL
Drug uptake [4]: 24.6 ng/mL
Ratio [5]: 0.59
Activity [6]: Active
concentration at 1 h [7]: 45.5 ng/mL
concentration at 1 h [8]: 22.5 ng/mL
Kp at 1 h [9]: 0.49
Drug uptake [10]: 6.95 ng/mL

CC(=O)Oc1ccccc1C(=O)NC12CC3CC(CC(C3)C1)C2
concentration at 1 h [11]: 17.4 ng/mL
concentration at 1 h [12]: 8.58 ng/mL
Kp at 1 h [13]: 0.49
Drug uptake [14]: 13.84 ng/mL
Drug uptake [15]: 6.81 ng/mL
Ratio [16]: 0.49
Activity [6]: Active

CC(=O)Oc1ccccc1C(=O)OC12C3C4CC5C6C4C1C6C1(OCCCN12)C53 (stereo not drawn)
Drug uptake [17]: 44.11 ng/mL
Drug uptake [18]: 59.03 ng/mL
Ratio [19]: 1.34
Activity [6]: Active

CC(C)Cc1ccc(C(C)C(=O)OC23C4C5CC6C7C5C2C7C2(OCCCN23)C64)cc1 (stereo not drawn)
Drug uptake [20]: 40.28 ng/mL
Drug uptake [21]: 55.8 ng/mL
Ratio [22]: 1.39
Activity [6]: Active

CC(C)Cc1ccc(C(C)C(=O)NC23CC4CC(CC(C4)C2)C3)cc1 (stereo not drawn)
Drug uptake [23]: 30.45 ng/mL
Drug uptake [24]: 11.83 ng/mL
Ratio [25]: 0.39
Activity [6]: Active

CC(C)Cc1ccc(C(C)C(=O)O)cc1 (stereo not drawn) [IBUPROFEN]
concentration at 1 h [11]: 61.4 ng/mL
concentration at 1 h [12]: 52.5 ng/mL
Kp at 1 h [13]: 0.9
Activity [6]: Active
